Test results as given in paper PMC7377239, “Cardiovascular Effects of Polychlorinated Biphenyls and Their Major Metabolites” (Environmental Health Perspectives, 2020).
Like-named read-outs stand apart in the source and are kept apart here.

Tests used:
[1] = tested on: iCell endothelial cells (human iPSC-derived ECs); assay: High-content imaging cytotoxicity in iCell endothelial cells, 24 h; assay type: cell-based; settings: Homo sapiens, Endothelial cell, iPSC-EC, 24 hr; for viability at 0.1 µM / activity at 0.1 µM: 0.10 µM; for minimal effective concentration: top concentration 100.00 µM
How it was run: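 Readouts were vehicle-normalised and fitted to a four-parameter logistic model. POD was set at one SD beyond 0.5% DMSO control means, and 100 µM was assigned when no response was seen. Cells were monolayers of iCell endothelial cells imaged after 24 h compound exposure using nuclear, mitochondrial and calcein dyes.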

HUVECs = assay: Tube formation (tubulogenesis) assay in HUVECs, 18 h; assay type: cell-based, human; settings: Homo sapiens, HUVEC, 18 h, HUVECs; for activity at 0.1 µM: 0.10 µM; for minimal effective concentration: top concentration 100.00 µM
How it was run: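 HUVECs (passage 1–5) seeded on reduced-growth-factor basement membrane and exposed to compounds overnight at 37°C, 5% CO2, in 2× maintenance medium with 12.5 ng/mL VEGF; 0.5% DMSO vehicle. Calcein AM-stained tube networks imaged and analysed; vehicle-normalized readouts fit to four-parameter logistic, POD set at one SD of vehicle means.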

[2] = 0.00 µM control = 100.00, read-out: endo.cyto.24hr
[3] = 0.00 µM control = 100.00, read-out: endo.mito.24hr
[4] = 0.00 µM control = 100.00, read-out: endo.mitoint.24hr
[5] = 0.00 µM control = 100.00, read-out: endo.nma.24hr
[6] = 0.00 µM control = 100.00, read-out: endo.tc.24hrs
[7] = 0.00 µM = 100.00, read-out: huvec.mtl.18hr
[8] = 0.00 µM = 100.00, read-out: huvec.tlps.18hr
[9] = 0.00 µM = 100.00, read-out: huvec.tta.18hr
[10] = 0.00 µM = 100.00, read-out: huvec.ttl.18hr

**Q.** With `Clc1ccc(Cl)c(-c2cc(Cl)ccc2Cl)c1` [PCB52] as the compound, how does the viability at 0.01 µM [1, 2] read?
**A.** Its viability at 0.01 µM is 100%.

**Q.** And the activity at 0.01 µM [1, 3]?
**A.** Its activity at 0.01 µM is 99.8%.

**Q.** What about the activity at 0.01 µM [1, 4] of the same compound?
**A.** Its activity at 0.01 µM is 92.8%.

**Q.** What about the activity at 0.01 µM [1, 5] of the same compound?
**A.** Its activity at 0.01 µM is 103%.

**Q.** What about the viability at 0.01 µM [1, 6] of the same compound?
**A.** Its viability at 0.01 µM is 100%.

**Q.** And the viability at 0.1 µM [1, 2]?
**A.** The viability at 0.1 µM was 98.4%.

**Q.** And the activity at 0.1 µM [1, 3]?
**A.** Its activity at 0.1 µM is 97.7%.

**Q.** And the activity at 0.1 µM [1, 4]?
**A.** The activity at 0.1 µM was 87.4%.

**Q.** What about the activity at 0.1 µM [1, 5] of the same compound?
**A.** Its activity at 0.1 µM is 103%.

**Q.** What about the viability at 0.1 µM [1, 6] of the same compound?
**A.** The viability at 0.1 µM was 98.4%.

**Q.** What about the viability at 1 µM [1, 2] of the same compound?
**A.** Its viability at 1 µM is 97.6%.

**Q.** What about the activity at 1 µM [1, 3] of the same compound?
**A.** The activity at 1 µM was 97.5%.

**Q.** What about the activity at 1 µM [1, 4] of the same compound?
**A.** The activity at 1 µM was 92%.

**Q.** What about the activity at 1 µM [1, 5] of the same compound?
**A.** Its activity at 1 µM is 100%.

**Q.** What about the viability at 1 µM [1, 6] of the same compound?
**A.** Its viability at 1 µM is 97.6%.

**Q.** And the viability at 10 µM [1, 2]?
**A.** Its viability at 10 µM is 99.3%.

**Q.** And the activity at 10 µM [1, 3]?
**A.** Its activity at 10 µM is 99.4%.

**Q.** And the activity at 10 µM [1, 4]?
**A.** The activity at 10 µM was 86.3%.

**Q.** And the activity at 10 µM [1, 5]?
**A.** Its activity at 10 µM is 101%.

**Q.** What about the viability at 10 µM [1, 6] of the same compound?
**A.** The viability at 10 µM was 99.3%.

**Q.** And the viability at 100 µM [1, 2]?
**A.** The viability at 100 µM was 97.2%.

**Q.** And the activity at 100 µM [1, 3]?
**A.** Its activity at 100 µM is 97.4%.

**Q.** And the activity at 100 µM [1, 4]?
**A.** Its activity at 100 µM is 83.6%.

**Q.** And the activity at 100 µM [1, 5]?
**A.** The activity at 100 µM was 100%.

**Q.** And the viability at 100 µM [1, 6]?
**A.** The viability at 100 µM was 97.2%.

**Q.** And the minimal effective concentration ([1]; read-out: endo.cyto.24hr POD)?
**A.** The minimal effective concentration was 100 µM.

**Q.** And the minimal effective concentration ([1]; read-out: endo.mito.24hr POD)?
**A.** The minimal effective concentration was 100 µM.

**Q.** What about the minimal effective concentration ([1]; read-out: endo.mitoint.24hr POD) of the same compound?
**A.** Its minimal effective concentration is 100 µM.

**Q.** What about the minimal effective concentration ([1]; read-out: endo.nma.24hr POD) of the same compound?
**A.** Its minimal effective concentration is 100 µM.

**Q.** And the minimal effective concentration ([1]; read-out: endo.tc.24hrs POD)?
**A.** Its minimal effective concentration is 100 µM.

**Q.** And the activity at 0.01 µM (HUVECs; [7])?
**A.** The activity at 0.01 µM was 105%.

**Q.** What about the activity at 0.01 µM (HUVECs; [8]) of the same compound?
**A.** Its activity at 0.01 µM is 114%.

**Q.** And the activity at 0.01 µM (HUVECs; [9])?
**A.** The activity at 0.01 µM was 103%.

**Q.** And the activity at 0.01 µM (HUVECs; [10])?
**A.** Its activity at 0.01 µM is 94.1%.

**Q.** What about the activity at 0.1 µM (HUVECs; [7]) of the same compound?
**A.** Its activity at 0.1 µM is 111%.

**Q.** And the activity at 0.1 µM (HUVECs; [8])?
**A.** Its activity at 0.1 µM is 126%.

**Q.** And the activity at 0.1 µM (HUVECs; [9])?
**A.** The activity at 0.1 µM was 105%.

**Q.** And the activity at 0.1 µM (HUVECs; [10])?
**A.** Its activity at 0.1 µM is 94.2%.

**Q.** What about the activity at 1 µM (HUVECs; [7]) of the same compound?
**A.** The activity at 1 µM was 108%.

**Q.** What about the activity at 1 µM (HUVECs; [8]) of the same compound?
**A.** Its activity at 1 µM is 121%.

**Q.** What about the activity at 1 µM (HUVECs; [9]) of the same compound?
**A.** Its activity at 1 µM is 86.8%.

**Q.** What about the activity at 1 µM (HUVECs; [10]) of the same compound?
**A.** The activity at 1 µM was 81.6%.

**Q.** What about the activity at 10 µM (HUVECs; [7]) of the same compound?
**A.** Its activity at 10 µM is 100%.

**Q.** And the activity at 10 µM (HUVECs; [8])?
**A.** Its activity at 10 µM is 95%.

**Q.** What about the activity at 10 µM (HUVECs; [9]) of the same compound?
**A.** The activity at 10 µM was 99.7%.

**Q.** What about the activity at 10 µM (HUVECs; [10]) of the same compound?
**A.** Its activity at 10 µM is 94.2%.

**Q.** What about the activity at 100 µM (HUVECs; [7]) of the same compound?
**A.** Its activity at 100 µM is 97.2%.

**Q.** What about the activity at 100 µM (HUVECs; [8]) of the same compound?
**A.** The activity at 100 µM was 114%.

**Q.** What about the activity at 100 µM (HUVECs; [9]) of the same compound?
**A.** Its activity at 100 µM is 94.8%.

**Q.** What about the activity at 100 µM (HUVECs; [10]) of the same compound?
**A.** The activity at 100 µM was 83.5%.

**Q.** And the minimal effective concentration (HUVECs; read-out: huvec.mtl.18hr POD)?
**A.** Its minimal effective concentration is 100 µM.

**Q.** And the minimal effective concentration (HUVECs; read-out: huvec.tlps.18hr POD)?
**A.** Its minimal effective concentration is 100 µM.

**Q.** And the minimal effective concentration (HUVECs; read-out: huvec.tta.18hr POD)?
**A.** The minimal effective concentration was 100 µM.

**Q.** What about the minimal effective concentration (HUVECs; read-out: huvec.ttl.18hr POD) of the same compound?
**A.** Its minimal effective concentration is 100 µM.
